# Experimental data: patent publication US9024027B2, “Derivatives of 1-phenyl-2-pyridinyl alkyl alcohols as phosphodiesterase inhibitors” (Chiesi Farmaceutici S.p.A., priority 2011, dated 2015)
# Tested on: LPS-induced TNF-α release in peripheral blood mononuclear cells (PBMCs)
# Assay: In vitro determination of PDE4 inhibitory activity in the PBMCs assay (LPS-induced TNF-α release)
# Assay type: cell-based
# Conditions: PBMC; human PBMCs, LPS 3 ng/ml, 18 hours; read-out: PDE4 inhibition (IC50, 50% inhibition of LPS-induced TNF-α release)
# Procedure: The assay, which is based on the known inhibitory activity exerted by PDE4 inhibitors on the lipopolyshaccarides (LPS)-induced tumour necrosis factor-alpha (TNF-α release in peripheral blood mononuclear cells (PBMCs), was performed according to a method previously described (Hatzelmann A et al., J. Pharmacol. Exp. Ther., 2001; 297:267-279; and Draheim R et al., J. Pharmacol. Exp. Ther., 2004; 308:555-563, both of which are incorporated herein by reference in their entireties. Cryopreserved human PBMCs, (100 μl/well) were incubated in 96-well plates (10^5 cells/well), for 30 minutes, in the presence or absence (50 microl) of the test compounds whose concentrations ranged from 10^−12 M to 10^−6 M or from 10^−13 M to 10^−7 M. Subsequently, LPS (3 ng/ml) was added. After 18 hours of incubation at 37° C. in a humidified incubator under an atmosphere of 95% air and 5% CO2, culture medium was collected and TNF-α measured by ELISA.
# The results of the tested compounds, representatives of the invention, expressed as mean±95% confidence limits of the molar concentration of the test compound producing 50% inhibition of LPS-induced TNF-α release (IC50) are shown in the following Table: […]
row,Structure (SMILES),IC50 [nM]
1,O=C(Cn1ccc2cnccc21)O[C@@H](Cc1c(Cl)c[n+]([O-])cc1Cl)c1ccc(OC(F)F)c(OCC2CC2)c1 [Compound 61],1 to 10
2,CS(=O)(=O)N(CCN1CCCC1)c1ccc2c(c1)C(=O)N(CC(=O)O[C@@H](Cc1c(Cl)c[n+]([O-])cc1Cl)c1ccc(OC(F)F)c(OCC3CC3)c1)C2=O [Compound 183],< 1
3,"O=C(CN1C(=O)c2ccccc2C1=O)O[C@@H](Cc1c(Cl)c[n+]([O-])cc1Cl)c1ccc(OC(F)F)c(OC2CCOC2)c1 (stereo partly drawn) [Compound 261, 3,5-dichloro-4-((2S)-2-(4-(difluoromethoxy)-3-(tetrahydrofuran-3-yloxy)phenyl)-2-(2-(1,3-dioxoisoindolin-2-yl)acetoxy)-ethyl)pyridine 1-oxide]",< 1
4,"CS(=O)(=O)N(CCN1CCOCC1)c1ccc2c(c1)CC(=O)N2CC(=O)O[C@@H](Cc1c(Cl)c[n+]([O-])cc1Cl)c1ccc(OC(F)F)c(OCC2CC2)c1 [Compound 243, (S)-3,5-dichloro-4-(2-(3-(cyclopropylmethoxy)-4-(difluoromethoxy)phenyl)-2-(2-(5-(N-(2-morpholinoethyl)methylsulfonamido)-2-oxoindolin-1-yl)acetoxy)ethyl)pyridine 1-oxide]",< 1
5,"CS(=O)(=O)Nc1cn(CC(=O)O[C@@H](Cc2c(Cl)c[n+]([O-])cc2Cl)c2ccc(OC(F)F)c(OCC3CC3)c2)c2ccccc12 [Compound 93, (S)-3,5-dichloro-4-(2-(3-(cyclopropylmethoxy)-4-(difluoromethoxy)phenyl)-2-(2-(3-(methylsulfonamido)-1H-indol-1-yl)acetoxy)ethyl)pyridine 1-oxide]",1 to 10
6,"COc1ccc2c(c1)C(=O)C(=O)N2CC(=O)O[C@@H](Cc1c(Cl)c[n+]([O-])cc1Cl)c1ccc(OC(F)F)c(OCC2CC2)c1 [Compound 57, (S)-3,5-dichloro-4-(2-(3-(cyclopropylmethoxy)-4-(difluoromethoxy)phenyl)-2-(2-(5-methoxy-2,3-dioxoindolin-1-yl)acetoxy)ethyl)-pyridine 1-oxide]",< 1
7,COc1cc2ccn(CC(=O)O[C@@H](Cc3c(Cl)c[n+]([O-])cc3Cl)c3ccc(OC(F)F)c(OCC4CC4)c3)c2cc1OC [Compound 54],1 to 10
8,"O=C(CN1C(=O)c2ccc(NO)cc2C1=O)O[C@@H](Cc1c(Cl)c[n+]([O-])cc1Cl)c1ccc(OC(F)F)c(OCC2CC2)c1 [Compound 169, (S)-3,5-dichloro-4-(2-(3-(cyclopropylmethoxy)-4-(difluoromethoxy)phenyl)-2-(2-(5-(hydroxyamino)-1,3-dioxoisoindolin-2-yl)acetoxy)ethyl)pyridine 1-oxide]",< 1
9,O=C(Cn1c(=O)c2ccccc2n(CCN2CCOCC2)c1=O)O[C@@H](Cc1c(Cl)c[n+]([O-])cc1Cl)c1ccc(OC(F)F)c(OCC2CC2)c1 [Compound 39],< 1
10,"COc1ccc2c(c1)CC(=O)N2CC(=O)O[C@@H](Cc1c(Cl)c[n+]([O-])cc1Cl)c1ccc(OC(F)F)c(OCC2CC2)c1 [Compound 117, (S)-3,5-dichloro-4-(2-(3-(cyclopropylmethoxy)-4-(difluoromethoxy)phenyl)-2-(2-(5-methoxy-2-oxoindolin-1-yl)acetoxy)-ethyl)pyridine 1-oxide]",< 1
11,"Nc1ccc2c(c1)C(=O)N(CC(=O)O[C@@H](Cc1c(Cl)c[n+]([O-])cc1Cl)c1ccc(OC(F)F)c(OCC3CC3)c1)C2 [Compound 9, (S)-4-(2-(2-(6-amino-1-oxoisoindolin-2-yl)acetoxy)-2-(3-(cyclopropylmethoxy)-4-(difluoromethoxy)phenyl)ethyl)-3,5-dichloropyridine 1-oxide]",1 to 10

# Tested on: not given
# Assay: not given
# Conditions: human, microsomes
row,Structure (SMILES),intrinsic Clearance [mL/min/g]
1,O=C(Cn1c(=O)oc2ccccc21)O[C@@H](Cc1c(Cl)c[n+]([O-])cc1Cl)c1ccc(OC(F)F)c(OCC2CC2)c1 [Compound 24],> 15
